In patent US10538521B2, “Pyrimidine derivative having antimalarial activity” (CARNA BIOSCIENCES, INC., priority 2016, dated 2020):
Where a name gives a salt, the structure may show the parent alone. Read-outs that look alike come from different tables or passages of the source.

Tests used:
[1] = test system: P. berghei N strain (drug sensitive strain); assay: In vivo antimalarial assay, mouse model infected with rodent malaria; conditions: Plasmodium berghei, ip, 96 h, read-out: Therapeutical Effect (%) inhibition
Method: In vivo antimalarial activity of the compound of the present invention was determined using a mouse model infected with rodent malaria P. berghei N strain (drug sensitive strain) by slightly modifying the method described in the above publication of Otoguro et al. (2001) and the method reported by Peters et al. (Peters, W., Portus, J. H. and Robinson, B. L.: The chemotherapy of rodent malaria. XXII. The value of drug-resistant strains of P. berghei in Screening for blood schizonticidal activity. Ann. Trop. Med. Parasitol., 69: 155-171, (1975)). The P. berghei N strain was generous gift from Dr. W. Peters (Northwick Park Institute for Medical Research, Middlesex, United Kingdom).
A group of three ICR male mice (Charles River Laboratories Japan, Inc.) weighing 18 to 20 g was used as a test animal. Using protozoa maintained and sub-cultured by in vivo passage, 2×10^6 parasite-infected erythrocytes were pre pared, and the mice were infected therewith by tail vein injection. For the therapeutic test, a 1-day suppressive test was performed. The day of infection was defined as day 0. Two hours after the infection, a solution of the test compound (solvent: 3% DMSO/0.5% methylcellulose400-solution or suspension) was administered intraperitoneally (i.p.) once to 3 times. On day 4, blood smear preparation was prepared by collecting from the tail vein and the ratio of parasite-infected erythrocytes (parasitaemia) was investigated to determine the therapeutic effect (inhibition percentage) based on the infection rate of the group to which the compound was not administered. The significance test was performed by Dunnett's test.

[2] = test system: K1 strain, a drug resistant strain of Plasmodium falciparum; assay: In vitro antimalarial assay (p-LDH, Malstat), K1 strain; assay type: cell-based; conditions: read-out: Antimalarial activity (IC50 value), Strain K1
Procedure, shortened: (§1)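 IC50 derived from concentration-response of parasite lactate dehydrogenase signal (Malstat reagent, NBT/PES formazan at 655 nm) after freeze-thaw lysis. Infected erythrocytes (hematocrit 2%, parasitaemia 0.5 or 1%) exposed 72 h to 12.5–0.0001 μM final compound under 3% O2-4% CO2-93% N2, FCR3 and K1 alike.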

[3] = test system: FCR3 strain, a drug sensitive strain of Plasmodium falciparum; assay: In vitro antimalarial assay (p-LDH, Malstat), FCR3 strain; assay type: cell-based; conditions: read-out: Antimalarial activity (IC50 value), Strain FCR3
Procedure, shortened: as §1

[4] = 10 mg/kg i.p., administered once, parasitaemia on day 4, ICR mice
[5] = P. falciparum K1 (drug resistant), 72 h culture, p-LDH readout
[6] = P. falciparum FCR3 (drug sensitive), 72 h culture, p-LDH readout
[7] = 10 mg/kg i.p., administered three times (day 0, 1 and 2), parasitaemia on day 4, ICR mice
[8] = 10 mg/kg i.p., administered twice (day 0 and 1), parasitaemia on day 4, ICR mice

Row | Compound | inhibition in vivo at 10 mg/kg [1, 4] | IC50 [2, 5] | IC50 [3, 6] | inhibition in vivo at 10 mg/kg [1, 7] | inhibition in vivo at 10 mg/kg [1] | IC50 ([2]; K1, 72 h) | IC50 ([3]; FCR3, 72 h) | inhibition in vivo at 10 mg/kg [1, 8]
1 | CCCc1cccc(Nc2nc(Nc3ccn4ccnc4c3)cc(N3CCCCC3)n2)n1 [Example 105, N4-(imidazo[1,2-a]pyridin-7-yl)-6-(piperidin-1-yl)-N2-(6-propylpyridin-2-yl)pyrimidine-2,4-diamine] | 41.9% | < 100 nM | < 100 nM |  |  |  |  | 
2 | CCCCc1cccc(Nc2nc(Nc3ccn4ccnc4c3)cc(N3CCCCC3)n2)n1 [Example 106, N2-(6-butylpyridin-2-yl)-N4-(imidazo[1,2-a]pyridin-7-yl)-6-(piperidin-1-yl)pyrimidine-2,4-diamine] |  | < 100 nM | < 100 nM | 87.4% |  |  |  | 
3 | CCc1ccnc(Nc2nc(Nc3ccn4ccnc4c3)cc(N3CCC(OC)CC3)n2)c1 [Example 114, N2-(4-ethylpyridin-2-yl)-N4-(imidazo[1,2-a]pyridin-7-yl)-6-(4-methoxypiperidin-1-yl)pyrimidine-2,4-diamine] | 70.9% | < 100 nM | < 100 nM |  |  |  |  | 
4 | Cc1cc(C)nc(Nc2nc(Nc3ccn4ccnc4c3)cc(N3CCC(C)(C)C3)n2)c1 [Example 142, N2-(4,6-dimethylpyridin-2-yl)-6-(3,3-dimethylpyrrolidin-1-yl)-N4-(imidazo[1,2-a]pyridin-7-yl)pyrimidine-2,4-diamine] |  | < 100 nM | < 100 nM | 84.5% |  |  |  | 
5 | Cc1cc(C)nc(Nc2nc(Nc3ccn4ccnc4c3)cc(N3CC(C)C(C)C3)n2)c1 (stereo not drawn) [Example 147, N2-(4,6-dimethylpyridin-2-yl)-6-(3,4-dimethylpyrrolidin-1-yl)-N4-(imidazo[1,2-a]pyridin-7-yl)pyrimidine-2,4-diamine formate] |  |  |  |  | 83.4% | < 100 nM | < 100 nM | 
6 | CC(C)Cc1cccc(Nc2nc(Nc3ccn4ccnc4c3)cc(N3CCCC3)n2)n1 [Example 161, N4-(imidazo[1,2-a]pyridin-7-yl)-N2-(6-isobutylpyridin-2-yl)-6-(pyrrolidin-1-yl)pyrimidine-2,4-diamine] |  | < 100 nM | < 100 nM |  |  |  |  | 64.3%
7 | CCCCc1cccc(Nc2nc(Nc3ccn4ccnc4c3)cc(N3CCCC3)n2)n1 [Example 165, N2-(6-butylpyridin-2-yl)-N4-(imidazo[1,2-a]pyridin-7-yl)-6-(pyrrolidin-1-yl)pyrimidine-2,4-diamine] |  | < 100 nM | < 100 nM |  |  |  |  | 98%
8 | CCc1ccnc(Nc2nc(Nc3ccn4ccnc4c3)cc(N3CCC(C)(C)C3)n2)c1 [Example 170, 6-(3,3-dimethylpyrrolidin-1-yl)-N2-(4-ethylpyridin-2-yl)-N4-(imidazo[1,2-a]pyridin-7-yl) pyrimidine-2,4-diamine] | 92.9% | < 100 nM | < 100 nM |  |  |  |  | 
9 | Cc1cc(C)nc(Nc2nc(Nc3ccn4ccnc4c3)cc(N3CCC4(CCCC4)C3)n2)c1 [Example 174, N2-(4,6-dimethylpyridin-2-yl)-N4-(imidazo[1,2-a]pyridin-7-yl)-6-(2-azaspiro[4.4]nonan-2-yl)pyrimidine-2,4-diamine] |  | < 100 nM | < 100 nM |  |  |  |  | 93.6%
